In this data set the target is ATP-dependent translocase ABCB1 (Homo sapiens, UniProt P08183). As to the kind of experiment: TP_TRANSPORTER: inhibition of Daunorubicin transport in G185 cells. It counts as functional, cell-based. The conditions noted are these: mouse.

Structures are written as SMILES.

Chain of ATP-dependent translocase ABCB1 (P08183 whole entry): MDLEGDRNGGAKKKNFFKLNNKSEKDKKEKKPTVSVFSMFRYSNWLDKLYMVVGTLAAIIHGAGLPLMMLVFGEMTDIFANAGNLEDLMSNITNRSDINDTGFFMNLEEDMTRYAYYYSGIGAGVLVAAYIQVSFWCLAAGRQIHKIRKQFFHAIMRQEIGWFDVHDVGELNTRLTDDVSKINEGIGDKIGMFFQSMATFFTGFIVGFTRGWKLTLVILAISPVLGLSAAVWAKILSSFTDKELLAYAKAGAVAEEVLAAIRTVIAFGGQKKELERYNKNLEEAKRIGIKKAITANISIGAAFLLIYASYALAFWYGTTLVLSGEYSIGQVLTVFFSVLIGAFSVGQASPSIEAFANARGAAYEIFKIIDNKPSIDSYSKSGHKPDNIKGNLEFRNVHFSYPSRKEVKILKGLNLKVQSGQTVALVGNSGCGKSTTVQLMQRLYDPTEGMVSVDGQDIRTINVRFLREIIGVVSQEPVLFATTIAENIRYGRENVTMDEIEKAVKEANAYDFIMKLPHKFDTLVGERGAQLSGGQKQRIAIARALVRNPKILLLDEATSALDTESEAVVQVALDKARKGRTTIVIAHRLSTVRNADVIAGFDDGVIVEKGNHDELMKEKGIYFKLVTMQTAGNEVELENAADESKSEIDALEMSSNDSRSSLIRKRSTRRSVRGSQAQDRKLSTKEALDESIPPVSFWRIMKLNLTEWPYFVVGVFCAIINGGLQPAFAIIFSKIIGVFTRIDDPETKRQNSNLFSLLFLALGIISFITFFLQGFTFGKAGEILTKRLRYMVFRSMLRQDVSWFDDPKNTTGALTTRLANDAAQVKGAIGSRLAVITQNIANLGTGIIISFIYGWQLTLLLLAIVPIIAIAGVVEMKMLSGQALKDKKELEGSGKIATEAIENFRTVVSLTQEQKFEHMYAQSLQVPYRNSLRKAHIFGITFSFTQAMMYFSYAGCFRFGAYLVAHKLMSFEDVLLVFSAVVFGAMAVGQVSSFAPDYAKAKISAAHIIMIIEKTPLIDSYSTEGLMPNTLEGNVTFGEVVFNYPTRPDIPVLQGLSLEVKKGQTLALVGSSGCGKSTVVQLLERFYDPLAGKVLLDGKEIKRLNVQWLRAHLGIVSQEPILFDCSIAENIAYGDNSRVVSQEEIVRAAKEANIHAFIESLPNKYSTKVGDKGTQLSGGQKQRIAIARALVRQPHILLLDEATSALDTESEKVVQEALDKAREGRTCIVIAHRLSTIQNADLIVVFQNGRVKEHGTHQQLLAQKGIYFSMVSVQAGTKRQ

With `OC(Cn1cncn1)(Cn1cncn1)c1ccc(F)cc1F` [FLUCONAZOLE], the Activity result is “is not an inhibitor [-]”.

Source of the values: ChEMBL document CHEMBL2074078, “Interaction of common azole antifungals with P glycoprotein” (Antimicrob Agents Chemother, 2002).
